From patent publication US10195156B2, “Compounds and compositions for intracellular delivery of agents” (ModernaTX, Inc., priority 2015, dated 2019) come the findings set out here.

The test system of data set [1] is IL-6. Nature of the data set: Cytokine production induced by sample formulations: IL-6. It counts as in vivo. The note with it: mice, i.v., 0.5 mpk, 6 hours; for IL-6: in pg/mL (unit assumed). The essentials:
(§1)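 Mice received nanoparticle formulations intravenously at 0.5 mpk, with standard MC3 formulation and PBS as controls. Cytokine concentrations were measured 6 hours after dosing.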

Data set [2] is described as follows: pKa of nanoparticle compositions. It counts as physicochemical.
The subject of data set [3] is modified luciferase expression. Nature of the data set: Expression of Luc in different organs (liver, lung, spleen, femur) 6 hours after intravenous administration. As to conditions: i.v., 0.5 mpk. It counts as in vivo. The procedure:
The efficacy of the nanoparticle compositions presented in Tables 1, 1a, 17-1, 19-1, 20-1 and 21-1 was further evaluated by measuring the expression of modified luciferase in the liver, lung, spleen, and femur upon administration of a given composition. Formulations were administered intravenously to mice (n=3) at a dosage of 0.5 mpk and bioluminescence measured after 6 hours. The standard MC3 formulation and a PBS control were also tested.

Data set [4] deals with luciferase (Luc) mRNA expression. Description: Expression of Luc induced by sample formulations, whole-body bioluminescence after intravenous administration. The note with it: mice, i.v., 0.5 mg/kg. The format is in vivo. In a few lines:
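Mice (n=6) dosed intravenously with Luc mRNA nanoparticle formulations at 0.5 mg/kg. Whole-body bioluminescence measured at 3, 6 and 24 h. Standard MC3 formulation and PBS control run alongside.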

In data set [5] the test system is IP-10. Description: Cytokine production induced by sample formulations: IP-10. It counts as in vivo. As to conditions: mice, i.v., 0.5 mpk, 6 hours, in pg/mL (unit assumed). In a few lines: as §1
Data set [6] can be described thus: Encapsulation efficiency of RNA (QUANT-IT RIBOGREEN RNA assay). The format is physicochemical. In a few lines:
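Nanoparticle samples diluted to ~5 μg/mL RNA in TE buffer (pH 7.5), incubated with or without 2% Triton X-100 solution at 37 °C for 15 min, then RiboGreen added. Fluorescence read at ~480/520 nm, blank-subtracted; free RNA % = intact over Triton-disrupted signal.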

Data set [7] in a line: Particle size and polydispersity index of nanoparticle compositions (Zetasizer Nano ZS). It counts as physicochemical. In a few lines: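 Particle size and PDI were measured on a Zetasizer Nano ZS with the nanoparticle compositions dispersed in 1×PBS.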
Where [8] appears, read: Table 1, rows without footnote mark.
The mark [9] stands for this setting: Table 1, rows without footnote mark (lipid:DOPE:cholesterol:PEG-DMG 40:20:38.5:1.5, Luc mRNA; MC3 standard formulation).
The mark [10] stands for this setting: Table 20-1, rows without footnote mark.
Setting [11] is: comparison amongst compositions.

Usually pKa stands for the negative logarithm of the acid dissociation constant. The compound `CCCCCCCCCCCCN(CCCCCCCCCCCC)CCN(CCCCCCCCCCCC)CCN1CCN(CCN(CCCCCC)CCCCCC)CC1` [Compound 21, N^1-(2-(4-(2-(Dihexylamino)ethyl)piperazin-1-yl)ethyl)-N^1,N^2,N^2-tridodecylethane-1,2-diamine] gave an IL-6 in data set [1] (Table 4) of 48. Further, the pKa in data set [2] (setting [8]) is listed as 6.29. Moreover, in data set [3] (Table 3, mice), the “Total Flux Liver” value was 1.24E+09, the “Total Flux Lung” value is reported as 2.51E+06 and the “Total Flux Spleen” value was 1.17E+07. Besides, the “Total Flux 3 hours” value in data set [4] (Table 2, 3 hours) stood at 1.13E+10. For the same compound, in data set [4] (Table 2), the “Total Flux 6 hours” value amounted to 1.08E+10 and the “Total Flux 24 hours” value was determined as 1.18E+08. In data set [5] (Table 4), the IP-10 stood at 652. The “EE (%)” value in data set [6] (setting [8]) was determined as 98.6%. The same compound gave a PDI in data set [7] (setting [8]) of 0.239. Also, in data set [7] (setting [9]), the “Size (nm)” value is reported as 98.3 nm.

The compound `CCCCCCCCCCCCN(CCCCO)CCN(CCCCCCCCCCCC)CCCCCCCCCCCC` [Compound 20-22, 4-((2-(Didodecylamino)ethyl)(dodecyl)amino)butan-1-ol] showed an IL-6 in data set [1] (Table 20-4, formula (20-I)) of 118.6. Further, the pKa in data set [2] (setting [10]) was 5.90. For the same compound, in data set [3] (Table 20-3, mice), the “Total Flux Liver” value came out at 2.88E+08, the “Total Flux Lung” value is reported as 5.04E+05 and the “Total Flux Spleen” value stood at 1.65E+06. Besides, the “Total Flux 3 hours” value in data set [4] (Table 20-2, 3 hours) was 4.00E+09. Further, in data set [4] (Table 20-2), the “Total Flux 6 hours” value was 3.01E+09 and the “Total Flux 24 hours” value is given as 2.20E+08. In addition, in data set [5] (Table 20-4, formula (20-I)), the IP-10 worked out at 810.6. For the same compound, the “EE (%)” value in data set [6] (setting [10]) is listed as 95.3%. Also, in data set [7] (setting [10]), the PDI was 0.146 and the “Size (nm)” value came out at 73.8 nm.

Take `CCCCC/C=C\C/C=C\CCCCCCCCN(CCCCCCCC/C=C\C/C=C\CCCCC)CCOC` [Compound 17-9, (9Z,12Z)—N-(2-Methoxyethyl)-N-((9Z,12Z)-octadeca-9,12-dien-1-yl)octadeca-9,12-dien-1-amine]: the IL-6 in data set [1] (Table 17-4) was 35.2. Further, the pKa in data set [2] (Table 17-1) is listed as 4.93. Also, in data set [3] (Table 17-3, mice), the “Total Flux Femur” value was determined as 2.29E+04, the “Total Flux Liver” value is 1.39E+06, the “Total Flux Lung” value stood at 1.40E+04 and the “Total Flux Spleen” value came out at 3.72E+05. Further, in data set [4] (Table 17-2, 3 hours), the “Total Flux 3 hours” value is listed as 6.87E+06. Also, in data set [4] (Table 17-2), the “Total Flux 6 hours” value is 9.97E+06 and the “Total Flux 24 hours” value came to 3.43E+05. The IP-10 in data set [5] (Table 17-4) worked out at 112. Besides, in data set [6] (Table 17-1), the “EE (%)” value is given as 95.0%. For the same compound, in data set [7] (Table 17-1), the PDI was found to be 0.138 and the “Size (nm)” value is listed as 87.1 nm.

For the compound `CCCCCCCCCCCCN(CCO)CCN(CCCCCCCCCCCC)CCCCCC(=O)OCCCCC` [Compound 20-2, Pentyl 6-(dodecyl(2-(dodecyl(2-hydroxyethyl)amino)ethyl)amino)hexanoate], the IL-6 in data set [1] (Table 20-4, formula (20-I)) was determined as 118.5. Besides, the pKa in data set [2] (setting [10]) worked out at 6.60. For the same compound, in data set [3] (Table 20-3, mice), the “Total Flux Femur” value worked out at 1.07E+06, the “Total Flux Liver” value worked out at 6.01E+08, the “Total Flux Lung” value is listed as 4.52E+06 and the “Total Flux Spleen” value is 3.12E+07. In addition, the “Total Flux 3 hours” value in data set [4] (Table 20-2, 3 hours) turned out to be 1.35E+09. Moreover, in data set [4] (Table 20-2), the “Total Flux 6 hours” value is on record as 2.18E+09 and the “Total Flux 24 hours” value amounted to 6.49E+07. In data set [5] (Table 20-4, formula (20-I)), the IP-10 came out at 522.9. Besides, the “EE (%)” value in data set [6] (setting [10]) is on record as 91.6%. Besides, in data set [7] (setting [10]), the PDI is 0.130 and the “Size (nm)” value is 71.8 nm.

`CCCCCCCCCCCCN(CCCCO)CCCCCCCCCCCC` [Compound 17-13, 4-(Didodecylamino)butan-1-ol] had an IL-6 in data set [1] (Table 17-4) of 84.3. Besides, the pKa in data set [2] (Table 17-1) came to 6.89. Further, in data set [3] (Table 17-3, mice), the “Total Flux Liver” value worked out at 3.56E+05, the “Total Flux Lung” value is 4.66E+04 and the “Total Flux Spleen” value is reported as 1.90E+05. Further, the “Total Flux 3 hours” value in data set [4] (Table 17-2, 3 hours) is 1.10E+06. In data set [4] (Table 17-2), the “Total Flux 6 hours” value was found to be 1.80E+06 and the “Total Flux 24 hours” value came out at 7.95E+05. For the same compound, the IP-10 in data set [5] (Table 17-4) amounted to 222. Further, the “EE (%)” value in data set [6] (Table 17-1) turned out to be 89.22%. In addition, in data set [7] (Table 17-1), the PDI turned out to be 0.176 and the “Size (nm)” value was found to be 90.4 nm.

`CCCCCCCCCN(CCO)CCCCCCCCC` [Compound 17-10, 2-(Dinonylamino)ethan-1-ol] showed an IL-6 in data set [1] (Table 17-4) of 7.33. In addition, the “IL-6 induction, rank within the named table (in words)” value in data set [1] is “lowest IL-6 levels”. Besides, the pKa in data set [2] (Table 17-1) was found to be 2.85. In data set [3] (Table 17-3, mice), the “Total Flux Liver” value was found to be 2.00E+05, the “Total Flux Lung” value came to 2.52E+04 and the “Total Flux Spleen” value was 1.74E+04. Further, in data set [4] (Table 17-2, 3 hours), the “Total Flux 3 hours” value was found to be 6.61E+05. In data set [4] (Table 17-2), the “Total Flux 6 hours” value came to 1.16E+06 and the “Total Flux 24 hours” value was determined as 4.06E+05. The compound further gave an IP-10 in data set [5] (Table 17-4) of 243. In data set [6] (Table 17-1), the “EE (%)” value turned out to be 30.3%. In addition, the “encapsulation efficiency, rank within the named table (in words)” value in data set [6] (setting [11]) is on record as “did not encapsulate RNA with high efficiency”. For the same compound, in data set [7] (Table 17-1), the PDI came to 0.239 and the “Size (nm)” value came to 165.0 nm. In addition, the “particle size, rank within the named table (in words)” value in data set [7] (setting [11]) is “largest particles”.

On to `CCCCCCCCCN(CCCCCCCCC)CCN(CCCCCCCCC)CCN1CCN(CCN(CCCCCCCCC)CCCCCCCCC)CC1` [Compound 18, N^1-(2-(4-(2-(Dinonylamino)ethyl)piperazin-1-yl)ethyl)-N^1,N^2,N^2-trinonylethane-1,2-diamine], for which, in data set [1] (Table 4), the IL-6 is listed as 263. In data set [2] (setting [8]), the pKa is on record as 6.17. In data set [3] (Table 3, mice), the “Total Flux Femur” value is 3.31E+06, the “Total Flux Liver” value came out at 3.91E+09, the “Total Flux Lung” value came to 1.87E+07 and the “Total Flux Spleen” value came to 1.60E+07. Further, the “Total Flux 3 hours” value in data set [4] (Table 2, 3 hours) was determined as 2.13E+10. In data set [4] (Table 2), the “Total Flux 6 hours” value was determined as 1.76E+10 and the “Total Flux 24 hours” value turned out to be 7.00E+08. The “total flux after 3 hours, rank within the named table (in words)” value in data set [4] (3 hours) is “highest flux after 3 hours”. Also, the IP-10 in data set [5] (Table 4) stood at 655. Moreover, the “EE (%)” value in data set [6] (setting [8]) turned out to be 98.4%. Also, the PDI in data set [7] (setting [8]) is given as 0.120. For the same compound, the “Size (nm)” value in data set [7] (setting [9]) was determined as 76.7 nm.

As to `CCCCCCCOC(=O)CCCCCN(CCO)CCN(CCCCCC(=O)OCCCCCCC)CCCCCC(=O)OCCCCCCC` [Compound 20-5, Diheptyl 6,6′-((2-((6-(heptyloxy)-6-oxohexyl)(2hydroxyethyl)amino)ethyl)azanediyl)dihexanoate], the IL-6 in data set [1] (Table 20-4, formula (20-I)) was found to be 140.8. Moreover, the pKa in data set [2] (setting [10]) amounted to 6.79. Moreover, in data set [3] (Table 20-3, mice), the “Total Flux Femur” value is 9.53E+04, the “Total Flux Liver” value is 2.67E+06, the “Total Flux Lung” value is reported as 5.80E+04 and the “Total Flux Spleen” value was found to be 3.40E+06. Besides, in data set [4] (Table 20-2, 3 hours), the “Total Flux 3 hours” value stood at 6.07E+07. Further, in data set [4] (Table 20-2), the “Total Flux 6 hours” value is given as 1.99E+07 and the “Total Flux 24 hours” value turned out to be 2.07E+06. In data set [5] (Table 20-4, formula (20-I)), this compound yielded an IP-10 of 2012.3. Moreover, the “EE (%)” value in data set [6] (setting [10]) came to 78.1%. Also, in data set [7] (setting [10]), the PDI was determined as 0.210 and the “Size (nm)” value came to 119.3 nm.

Compound `CCCCCCCCCCCCN(CCCCCCCCCCCC)CCN(CCO)CCCCCC(=O)OCCCCC` [Compound 20-3, Pentyl 6-((2-(didodecylamino)ethyl)(2-hydroxyethyl)amino)hexanoate] yielded an IL-6 in data set [1] (Table 20-4, formula (20-I)) of 105.8. The compound also returned a pKa in data set [2] (setting [10]) of 6.82. In data set [3] (Table 20-3, mice), the “Total Flux Femur” value is reported as 1.73E+06, the “Total Flux Liver” value is reported as 4.33E+08, the “Total Flux Lung” value stood at 6.08E+05 and the “Total Flux Spleen” value is 6.35E+06. Further, the “Total Flux 3 hours” value in data set [4] (Table 20-2, 3 hours) worked out at 5.35E+09. Further, in data set [4] (Table 20-2), the “Total Flux 6 hours” value is reported as 3.00E+09 and the “Total Flux 24 hours” value is 6.49E+07. In data set [5] (Table 20-4, formula (20-I)), this compound showed an IP-10 of 671.5. For the same compound, the “EE (%)” value in data set [6] (setting [10]) worked out at 95.8%. Besides, in data set [7] (setting [10]), the PDI is on record as 0.110 and the “Size (nm)” value was found to be 76.4 nm.
